Test results from ChEMBL document CHEMBL1123274, “Azasteroids: structure-activity relationships for inhibition of 5 alpha-reductase and of androgen receptor binding” (J Med Chem, 1986).

What follows are molecules tested against T1, Steroid 5-alpha-reductase (Rattus norvegicus, UniProt P24008+P31214) (assay: In vitro inhibitory activity against rat prostatic steroid 5-alpha-reductase).
T1 sequence (P24008 whole entry): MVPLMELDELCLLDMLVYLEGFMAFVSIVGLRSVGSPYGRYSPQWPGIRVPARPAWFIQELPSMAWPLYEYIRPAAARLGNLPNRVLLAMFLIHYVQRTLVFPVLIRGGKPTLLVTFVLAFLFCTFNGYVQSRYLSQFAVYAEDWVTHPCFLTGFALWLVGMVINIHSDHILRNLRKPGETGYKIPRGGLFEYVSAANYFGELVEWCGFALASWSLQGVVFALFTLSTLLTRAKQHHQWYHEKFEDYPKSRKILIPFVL
T1 sequence (P31214 whole entry): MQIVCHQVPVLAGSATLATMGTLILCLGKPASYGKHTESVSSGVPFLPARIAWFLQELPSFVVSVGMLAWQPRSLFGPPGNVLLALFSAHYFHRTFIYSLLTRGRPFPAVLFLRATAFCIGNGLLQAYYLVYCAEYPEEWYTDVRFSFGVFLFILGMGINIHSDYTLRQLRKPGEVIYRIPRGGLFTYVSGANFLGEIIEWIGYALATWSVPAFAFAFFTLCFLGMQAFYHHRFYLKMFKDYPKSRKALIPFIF
Type: protein assay

Structure (SMILES)	IC50 [nM]	Ki app [nM]
CCN(CC)C(=O)[C@H]1CC[C@H]2[C@@H]3CC[C@H]4N(C)C(=O)[C@@H]5C[C@@H]5[C@]4(C)[C@H]3CC[C@]12C	20	–
CC(C(=O)[O-])[C@H]1CC[C@H]2[C@@H]3CC=C4N(C)C(=O)CC[C@]4(C)[C@H]3CC[C@]12C.[Na+] (some centres undefined)	13	–
CN1C(=O)CC[C@@]2(C)C1CC[C@H]1[C@@H]3CC[C@H](C(=O)NCCO)[C@@]3(C)CC[C@@H]12 (some centres undefined)	93	–
CCCCCCCCNC(=O)[C@H]1CC[C@H]2[C@@H]3CCC4N(C)C(=O)CC[C@]4(C)[C@H]3CC[C@]12C (some centres undefined)	0.21	–
COC(=O)[C@H]1CC[C@H]2[C@@H]3CCC4NC(=O)CC[C@]4(C)[C@H]3CC[C@]12C (some centres undefined)	–	133
CCCCCCCCN(CCCCCCCC)C(=O)[C@H]1CC[C@H]2[C@@H]3CCC4N(C)C(=O)CC[C@]4(C)[C@H]3CC[C@]12C (some centres undefined)	33	–
CCN(CC)C(=O)[C@H]1CCC[C@H]2[C@@H]3CC[C@H]4N(C)C(=O)NC[C@]4(C)[C@H]3CC[C@]12C	500	–
CCN(CC)C(=O)/C=C1\CC[C@H]2[C@@H]3CCC4N(C)C(=O)CC[C@]4(C)[C@H]3CC[C@]12C (some centres undefined)	2.5	–
CC(C)(C)NC(=O)[C@H]1CC[C@H]2[C@@H]3CC[C@H]4NC(=O)C=C[C@]4(C)[C@H]3CC[C@]12C [FINASTERIDE]	6.8	–

The molecules below were run against T2, Androgen receptor (Rattus norvegicus, UniProt P15207) (assay: In vitro antagonist activity against rat prostatic androgen receptor (AR)).
T2 sequence (P15207 whole entry): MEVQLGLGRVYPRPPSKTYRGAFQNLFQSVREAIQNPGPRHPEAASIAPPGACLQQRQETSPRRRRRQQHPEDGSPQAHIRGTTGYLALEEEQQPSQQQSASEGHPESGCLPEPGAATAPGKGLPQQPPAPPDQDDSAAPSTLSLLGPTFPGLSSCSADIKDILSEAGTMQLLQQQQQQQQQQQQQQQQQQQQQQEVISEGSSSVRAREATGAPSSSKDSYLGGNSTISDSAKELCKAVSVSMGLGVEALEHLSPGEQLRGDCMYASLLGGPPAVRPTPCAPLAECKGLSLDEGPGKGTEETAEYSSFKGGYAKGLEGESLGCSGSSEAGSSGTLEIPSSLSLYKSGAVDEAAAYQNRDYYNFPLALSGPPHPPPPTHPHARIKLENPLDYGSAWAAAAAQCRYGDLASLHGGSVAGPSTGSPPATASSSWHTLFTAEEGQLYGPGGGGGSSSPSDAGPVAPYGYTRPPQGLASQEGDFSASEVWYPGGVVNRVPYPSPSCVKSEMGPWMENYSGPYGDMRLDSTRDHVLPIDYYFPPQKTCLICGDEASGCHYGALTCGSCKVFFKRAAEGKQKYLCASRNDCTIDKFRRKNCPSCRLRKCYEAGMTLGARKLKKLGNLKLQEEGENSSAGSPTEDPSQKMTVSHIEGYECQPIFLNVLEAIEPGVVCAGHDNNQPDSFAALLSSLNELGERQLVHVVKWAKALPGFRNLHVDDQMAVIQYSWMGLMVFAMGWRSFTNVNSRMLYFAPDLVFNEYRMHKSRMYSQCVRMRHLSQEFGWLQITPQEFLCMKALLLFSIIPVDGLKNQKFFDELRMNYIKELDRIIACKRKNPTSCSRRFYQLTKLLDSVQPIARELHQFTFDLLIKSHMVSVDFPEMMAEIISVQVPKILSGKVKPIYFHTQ

Structure (SMILES)	IC50 [nM]
CC(=O)[C@H]1CC[C@H]2[C@@H]3CCC4=CC(=O)CC[C@]4(C)[C@H]3[C@H](O)C[C@]12C	330
CCN(CC)C(=O)[C@H]1CC[C@H]2[C@@H]3CC[C@H]4N(C)C(=O)[C@@H]5C[C@@H]5[C@]4(C)[C@H]3CC[C@]12C	2700
CCN(CC)C(=O)[C@H]1CC[C@H]2[C@@H]3CC[C@H]4N(C)C(=O)[C@@H]5O[C@@H]5[C@]4(C)[C@H]3CC[C@]12C	710
CCN(CC)C(=O)[C@H]1CC[C@H]2[C@@H]3CC[C@H]4N(C)C(=O)[C@@H](F)C[C@]4(C)[C@H]3CC[C@]12C	1800
CCN(CC)C(=O)[C@H]1CC[C@H]2[C@@H]3CC[C@H]4N(C)C(=O)[C@@H](OC)C[C@]4(C)[C@H]3CC[C@]12C	> 10000
CCN(CC)C(=O)[C@H]1CC[C@H]2[C@@H]3CC[C@H]4N(C)C(=O)[C@H](OC)C[C@]4(C)[C@H]3CC[C@]12C	> 10000
C[C@]12CC[C@H]3[C@@H](CCC4NC(=O)CC[C@@]43C)[C@@H]1CC[C@@H]2C(N)=O (some centres undefined)	> 100000
CC(C(=O)[O-])[C@H]1CC[C@H]2[C@@H]3CC=C4N(C)C(=O)CC[C@]4(C)[C@H]3CC[C@]12C.[Na+] (some centres undefined)	25000
CN1C(=O)CC[C@@]2(C)C1CC[C@H]1[C@@H]3CC[C@H](C(=O)C=[N+]=[N-])[C@@]3(C)CC[C@@H]12 (some centres undefined)	580
CN1C(=O)CC[C@@]2(C)C1=CC[C@H]1[C@@H]3CC[C@H](O)[C@@]3(C)CC[C@@H]12	7.4
COC(=O)C(C)[C@H]1CC[C@H]2[C@@H]3CCC4NC(=O)C=C[C@]4(C)[C@H]3CC[C@]12C (some centres undefined)	> 100000
CN1C(=O)CC[C@@]2(C)C1CC[C@H]1[C@@H]3CC[C@H](C(=O)NCCO)[C@@]3(C)CC[C@@H]12 (some centres undefined)	1700
COC(=O)C(C)[C@H]1CC[C@H]2[C@@H]3CCC4N(C)C(=O)C=C[C@]4(C)[C@H]3CC[C@]12C (some centres undefined)	270
CN1C(=O)C=C[C@@]2(C)C1CC[C@H]1[C@@H]3CC[C@H](C(=O)Sc4ccccn4)[C@@]3(C)CC[C@@H]12 (some centres undefined)	100
C[C@]12CC[C@H]3[C@@H](CCC4NC(=O)C=C[C@@]43C)[C@@H]1CC[C@@H]2C(=O)Sc1ccccn1 (some centres undefined)	> 10000
CN1C(=O)CC[C@H]2C1CC[C@@H]1[C@@H]2CC[C@@]2(C)[C@H]1CC[C@@]21CCCO1 (some centres undefined)	2000
CN1C(=O)CC[C@@]2(C)C1CC[C@H]1[C@@H]3CC[C@H](C(=O)NC(C)(C)CO)[C@@]3(C)CC[C@@H]12 (some centres undefined)	940
CCCCCCCCNC(=O)[C@H]1CC[C@H]2[C@@H]3CCC4N(C)C(=O)CC[C@]4(C)[C@H]3CC[C@]12C (some centres undefined)	130
CCN(CC)C(=O)[C@H]1CCC[C@H]2[C@@H]3CC[C@H]4N(C)C(=O)CC[C@]4(C)[C@H]3CC[C@]12C	7100
CCN(CC)C(=O)[C@H]1CC[C@H]2[C@@H]3CC[C@H]4N(C)C(=O)CCC[C@]4(C)[C@H]3CC[C@]12C	600
CCN(CC)C(=O)[C@H]1CC[C@H]2[C@@H]3CC[C@H]4NC(=O)CCC[C@]4(C)[C@H]3CC[C@]12C	> 10000
CCCCCNC(=O)[C@H]1CC[C@H]2[C@@H]3CCC4N(C)C(=O)CC[C@]4(C)[C@H]3CC[C@]12C (some centres undefined)	250
CC(C(=O)O)[C@H]1CC[C@H]2[C@@H]3CCC4NC(=O)CC[C@]4(C)[C@H]3CC[C@]12C (some centres undefined)	> 100000
CCCCCCCCNC(=O)[C@H]1CC[C@H]2[C@@H]3CCC4N(C)C(=O)C=C[C@]4(C)[C@H]3CC[C@]12C (some centres undefined)	340
CCN(CC)C(=O)[C@H]1CC[C@H]2[C@@H]3CC[C@H]4N(CC)C(=O)CC[C@]4(C)[C@H]3CC[C@]12C	32000

Structure (SMILES)	IC50 [nM]
COC(=O)[C@H]1CC[C@H]2[C@@H]3CC[C@H]4N(C)C(=O)C=C[C@]4(C)[C@H]3CC[C@]12C	13
CC(C)CC(=O)[C@H]1CC[C@H]2[C@@H]3CCC4NC(=O)CC[C@]4(C)[C@H]3CC[C@]12C (some centres undefined)	> 100000
CCCCCCCCN(CCCCCCCC)C(=O)[C@H]1CC[C@H]2[C@@H]3CCC4N(C)C(=O)CC[C@]4(C)[C@H]3CC[C@]12C (some centres undefined)	46000
C[C@]12CC[C@H]3[C@@H](CCC4NC(=O)CC[C@@]43C)[C@@H]1CC[C@@H]2C(=O)c1ccc[nH]1 (some centres undefined)	15000
CN1C(=O)CC[C@@]2(C)C1CC[C@H]1[C@@H]3CC[C@H](C(=O)c4ccc[nH]4)[C@@]3(C)CC[C@@H]12 (some centres undefined)	89
CN1C(=O)C=C[C@@]2(C)C1CC[C@H]1[C@@H]3CC[C@H](C(=O)c4ccc[nH]4)[C@@]3(C)CC[C@@H]12 (some centres undefined)	15
C[C@]12CC[C@H]3[C@@H](CCC4NC(=O)C=C[C@@]43C)[C@@H]1CC[C@@H]2C(=O)c1ccc[nH]1 (some centres undefined)	8000
CC(C(=O)O)[C@H]1CC[C@H]2[C@@H]3CCC4N(C)C(=O)C=C[C@]4(C)[C@H]3CC[C@]12C (some centres undefined)	> 100000
CO[C@H]1CC(=O)NC2CC[C@H]3[C@@H]4CC[C@H](C(N)=O)[C@@]4(C)CC[C@@H]3[C@]21C (some centres undefined)	> 100000
CC(C)CC(=O)[C@H]1CC[C@H]2[C@@H]3CCC4NC(=O)C=C[C@]4(C)[C@H]3CC[C@]12C (some centres undefined)	> 100000
CC(C(=O)O)[C@H]1CC[C@H]2[C@@H]3CCC4NC(=O)C=C[C@]4(C)[C@H]3CC[C@]12C (some centres undefined)	> 100000
CC(C)(C)CC(C)(C)NC(=O)[C@H]1CC[C@H]2[C@@H]3CCC4NC(=O)C=C[C@]4(C)[C@H]3CC[C@]12C (some centres undefined)	> 100000
CN1C(=O)C=C[C@]2(C)[C@H]3CC[C@]4(C)[C@@H](C(N)=O)CC[C@H]4[C@@H]3CC[C@@H]12	150
CCN(CC)C(=O)[C@H]1CCC[C@H]2[C@@H]3CC[C@H]4N(C)C(=O)NC[C@]4(C)[C@H]3CC[C@]12C	1600
CCN(CC)C(=O)/C=C1\CC[C@H]2[C@@H]3CCC4N(C)C(=O)CC[C@]4(C)[C@H]3CC[C@]12C (some centres undefined)	930
CN1C(=O)C=C[C@]2(C)[C@H]3CC[C@]4(C)[C@@H](O)CC[C@H]4[C@@H]3CC[C@@H]12	2.4
CCNC(=O)[C@H]1CC[C@H]2[C@@H]3CC[C@H]4NC(=O)C=C[C@]4(C)[C@H]3CC[C@]12C	> 10000
CC(C)N(C(=O)[C@H]1CC[C@H]2[C@@H]3CC=C4N(C)C(=O)C=C[C@]4(C)[C@H]3CC[C@]12C)C(C)C	6400
C[C@]12C=CC(=O)N[C@@H]1CC[C@@H]1[C@@H]2CC[C@]2(C)[C@@H](C(N)=O)CC[C@@H]12	> 10000
CC(C)N(C(=O)[C@H]1CC[C@H]2[C@@H]3CC=C4N(C)C(=O)CC[C@]4(C)[C@H]3CC[C@]12C)C(C)C	10000
COC(=O)[C@H]1CC[C@H]2[C@@H]3CC[C@H]4NC(=O)C=C[C@]4(C)[C@H]3CC[C@]12C	3200
C[C@]12C=CC(=O)N[C@@H]1CC[C@@H]1[C@@H]2CC[C@]2(C)[C@@H](O)CC[C@@H]12	170
CCNC(=O)[C@H]1CC[C@H]2[C@@H]3CC[C@H]4N(C)C(=O)C=C[C@]4(C)[C@H]3CC[C@]12C	83
CN1C(=O)CC[C@H]2C1=CC[C@@H]1[C@@H]2CC[C@@]2(C)[C@H]1CC[C@@]21CCCO1 (stereo in doubt; 74)	240
CN1C(=O)CC[C@H]2C1=CC[C@@H]1[C@@H]2CC[C@@]2(C)[C@H]1CC[C@@]21CCCO1 (stereo in doubt; 75)	150
